Results: PubChem BioAssay (NCI)
Values joined by “and” are separate entries in the source; they are usually repeats but may differ in a detail not shown here. Equal values may be shown once.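 Each compound was tested at five concentrations against cells in 96-well plates for 48 hours. GI50 = concentration required for 50% inhibition of growth. At the TGI there is no net growth.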

What was measured:
Assay in all cases: DTP human tumour cell line panel, 48 h
NCI-H460 lung = test system: NCI-H460 lung
T-47D breast = test system: T-47D breast
PC-3 prostate = test system: PC-3 prostate
HCT-116 colon = test system: HCT-116 colon
UACC-257 melanoma = test system: UACC-257 melanoma
A549 NSCLC = test system: A549 NSCLC
UACC-62 melanoma = test system: UACC-62 melanoma
SF-539 CNS = test system: SF-539 CNS

Row | Structure (SMILES) | GI50 (NCI-H460 lung) [µM] | TGI (NCI-H460 lung) | GI50 (T-47D breast) [µM] | TGI (T-47D breast) | GI50 (PC-3 prostate) [µM] | TGI (PC-3 prostate) [µM] | GI50 (HCT-116 colon) [µM] | TGI (HCT-116 colon) | GI50 (UACC-257 melanoma) [µM] | TGI (UACC-257 melanoma) | GI50 (A549 NSCLC) [µM] | TGI (A549 NSCLC) | GI50 (UACC-62 melanoma) [µM] | TGI (UACC-62 melanoma) | GI50 (SF-539 CNS) [µM] | TGI (SF-539 CNS) [µM]
1 | COc1ccc2c(c1)CCCN2c1c2ccccc2nc2ccccc12 | 0.358 | > 100 µM | 0.662 | > 100 µM | 0.354 | > 100 | 0.334 | 14.3 µM | 8.11 | > 100 µM | 0.418 | > 100 µM | 0.38 | 3.54 µM | 0.251 | 0.741
2 | CCOC(=S)SSSC(=S)OCC |  | > 100 µM |  | 60 µM |  | > 100 |  | 53.7 µM |  | > 100 µM |  | > 100 µM |  | > 100 µM |  | > 100
3 | COc1ccc(-c2onc(N)c2-c2cc(OC)c3c(c2)OCO3)cc1 | 3 | 21.1 µM | 4.65 | > 100 µM | 4.69 | > 100 | 2.32 | 50 µM | 3.43 | > 100 µM | 2.95 | > 100 µM | 1.96 | > 46.9 µM | 2.74 | 11.8
4 | O=C(Nc1ccncc1)C(=O)c1cn(S(=O)(=O)c2cccc(F)c2)c2ccccc12 | 13 | > 100 µM | 4.25 | > 100 µM | 5.69 | > 100 | 1.38 | > 100 µM | 13.5 | > 100 µM | 13.2 | > 100 µM | 2.96 | > 100 µM | 4.41 | > 100
5 | O=C(O)/C=C(\c1nc2ccc([N+](=O)[O-])cc2[nH]1)c1cc(Cl)ccc1O | 3.03 | 17.9 µM | 2.3 | 9.38 µM | 2.25 | > 100 | 2.35 | 7.03 µM | 2.37 | 7.15 µM | 3.07 | 14.1 µM | 1.45 | 5.41 µM | 3.1 | 17.8
6 | Cc1cc2c(cc1Cl)SC1=NN(C)S(=O)N1S2(=O)=O (stereo unspecified) | > 100 | > 100 µM | > 100 | > 100 µM | > 100 | > 100 | > 100 | > 100 µM | > 100 | > 100 µM | > 100 | > 100 µM | 88.4 | > 100 µM | > 100 | > 100
7 | C[N+]1=C(/C=C/c2ccc(O)c3ncccc23)C(C)(C)c2ccccc21 | 1.77 | 3.8 µM | 2.94 | 14.2 µM | 2.79 | 22 | 2.86 | 10.5 µM | 3.81 | 13.5 µM | 2.96 | 13.4 µM | 2.47 | 8.54 µM | 2.55 | 10.3
8 | Nc1nc2c(nnn2C2CC(O)C(CO)O2)c(=O)[nH]1 (stereo unspecified) | 7.4 | > 100 µM | 4.59 | > 65.1 µM | 2.55 | > 100 | 5.89 | > 100 µM | > 48.9 | > 100 µM | 20.3 | > 100 µM | 3.48 | 36.2 µM | 3.12 | > 41
9 | O=C1CCC(N2C(=O)c3ccccc3C2=O)C(=O)N1CO (stereo unspecified) | > 100 | > 100 µM | 78 | > 100 µM | 47.2 | > 100 | 21.2 | 45.4 µM | 78.6 | > 100 µM | > 100 | > 100 µM | 32.6 | > 100 µM | 30.8 | 93.6
10 | O=C(O)CCNC1CCCCC1 | > 100 | > 100 µM | > 100 | > 100 µM | > 100 | > 100 | > 100 | > 100 µM | > 100 | > 100 µM | > 100 | > 100 µM | > 100 | > 100 µM | > 100 | > 100
11 | Nc1nccc(-c2c(-c3ccc(F)cc3)ncn2C2CCC(O)CC2)n1 (stereo unspecified) | 4.95 | > 25 µM | 3.56 | > 19 µM | 13.3 | > 25 | 9.75 | > 25 µM | 16.1 | > 25 µM | 4.03 | > 25 µM | 10.6 | > 25 µM | > 23.2 | > 25
12 | CC(C)(CO)N1CCN(C(=S)Nc2ccccc2)CC1 |  | > 100 µM |  | > 100 µM |  | > 100 |  | > 100 µM |  | > 100 µM |  | > 100 µM |  | > 100 µM |  | > 100
13 | O=C(CCc1nnc2sc(-c3ccc(Cl)cc3Cl)nn12)c1nc2ccccc2[nH]1 | 0.988 | 2.39 µM | 0.916 | 2.92 µM | 0.865 | 3.62 | 0.247 | 0.692 µM | 1.83 | 4.31 µM | 1.88 | 4.96 µM | 1.19 | 2.62 µM | 1.98 | 4.63
14 | CCN(CC)CCCC(C)Nc1c2ccc(Cl)cc2nc2ccc(O)cc12 (stereo unspecified) | 1.38 | 3.84 µM | 3 | 11.6 µM | 3.58 | 18.5 | 1.13 | 3.08 µM | 1.7 | 3.31 µM | 1.47 | 3.67 µM | 1.89 | 4.02 µM | 1.63 | 3.14
15 | O=C1C(Cl)=C(NCCN2CCOCC2)C(=O)c2ncccc21 | 1.95 | 3.23 µM and 5.37 µM | 1.83 | 5.74 µM and 4.49 µM | 4.26 | 18.7 |  | 3.51 µM and 3.58 µM | 1.37 | 3.13 µM and 2.69 µM |  | 4.18 µM and 3.87 µM | 1.15 | 3.52 µM and 2.61 µM |  | 3.33
